Source: patent publication US20240254087A1, “SELECTIVE, PARTIAL, AND ARRESTIN-BIASED 5-HT2A AGONISTS WITH UTILITY IN VARIOUS DISORDERS” (Saint Joseph's University, priority 2021, published 2024)
“Also recorded” adds a separate entry of the source. Where two headings read alike, the source gives them in different places.

What was measured:
[1] = biological target: T1, 5-HT2A (Homo sapiens, UniProt P28223); assay: cell-based; parameters: expressed in transfected cells; host or cells: HEK293T, transient; conditions: for Emax: read-out: 5-HT2A β-arrestin Emax (% 5-HT), BRET, mean ± SEM
T1 sequence (P28223 whole entry): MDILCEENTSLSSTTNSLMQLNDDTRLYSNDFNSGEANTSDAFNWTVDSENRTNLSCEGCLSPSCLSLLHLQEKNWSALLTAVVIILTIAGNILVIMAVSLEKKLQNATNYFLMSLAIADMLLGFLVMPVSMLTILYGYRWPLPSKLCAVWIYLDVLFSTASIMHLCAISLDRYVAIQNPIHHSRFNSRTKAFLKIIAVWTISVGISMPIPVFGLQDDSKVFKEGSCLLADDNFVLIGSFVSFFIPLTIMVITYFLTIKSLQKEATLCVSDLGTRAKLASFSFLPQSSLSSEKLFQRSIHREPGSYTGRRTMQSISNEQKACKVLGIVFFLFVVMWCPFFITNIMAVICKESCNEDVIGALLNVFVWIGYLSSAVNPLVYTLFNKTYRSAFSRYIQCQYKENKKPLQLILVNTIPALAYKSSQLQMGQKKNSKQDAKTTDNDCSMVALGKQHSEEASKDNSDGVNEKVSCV

[2] = biological target: T2, 5-HT2C (Homo sapiens, UniProt P28335); assay: BRET Gq dissociation, 5-HT2C; type: cell-based; parameters: expressed in transfected cells; host or cells: HEK293T, transient; conditions: for Emax: read-out: 5-HT2C Gq Dissociation (BRET) EMAX ± SEM (%5-HT)
T2 sequence (P28335 33-458): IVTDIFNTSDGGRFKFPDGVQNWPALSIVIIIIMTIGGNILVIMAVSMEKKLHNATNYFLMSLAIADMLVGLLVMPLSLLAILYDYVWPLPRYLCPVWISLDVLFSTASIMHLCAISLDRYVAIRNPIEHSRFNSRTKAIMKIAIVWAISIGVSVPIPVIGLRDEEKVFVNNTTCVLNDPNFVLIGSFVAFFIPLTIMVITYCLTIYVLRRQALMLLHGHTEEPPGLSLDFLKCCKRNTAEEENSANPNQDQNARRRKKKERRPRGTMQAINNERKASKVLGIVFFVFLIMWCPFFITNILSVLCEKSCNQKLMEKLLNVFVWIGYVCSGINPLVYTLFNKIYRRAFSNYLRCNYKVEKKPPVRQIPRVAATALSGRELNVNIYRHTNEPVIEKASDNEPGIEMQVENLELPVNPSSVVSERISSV

[3] = biological target: T1, 5-HT2A; assay: cell-based; parameters: expressed in transfected cells; host or cells: HEK293T, transient; conditions: read-out: 5-HT2A Gq Emax (% 5-HT), BRET, mean ± SEM
[4] = system: male C57BL/6J mice; assay: Head-twitch response (HTR) in mice; type: in vivo, mouse; conditions: for ED50: Mus musculus
How it was run: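 Head twitches in male C57BL/6J mice (6-8 weeks) carrying head-mounted magnets were detected with a magnetometer coil around a 12-cm glass cylinder during the dark phase. Coil signal was low-pass filtered at 2 kHz and digitized at 20 kHz. Counts were analyzed by one-way ANOVA with Dunnett's post hoc test.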

[5] = biological target: 5-HT5a (Homo sapiens, UniProt P47898); assay: Competitive radioligand binding (NIMH PDSP)
5-HT5a, sequence (P47898 whole entry, species assumed): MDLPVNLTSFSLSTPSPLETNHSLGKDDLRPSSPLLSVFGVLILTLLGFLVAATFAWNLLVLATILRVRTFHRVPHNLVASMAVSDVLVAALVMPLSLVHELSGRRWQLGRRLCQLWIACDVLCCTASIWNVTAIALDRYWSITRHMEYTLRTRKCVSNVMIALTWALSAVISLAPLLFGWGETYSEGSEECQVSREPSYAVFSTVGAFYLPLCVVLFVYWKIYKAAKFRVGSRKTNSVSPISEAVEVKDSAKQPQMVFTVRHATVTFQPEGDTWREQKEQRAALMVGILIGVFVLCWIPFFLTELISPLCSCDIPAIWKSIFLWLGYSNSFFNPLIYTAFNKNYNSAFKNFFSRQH

[6] = biological target: 5-HT6 (Homo sapiens, UniProt P50406); assay: Competitive radioligand binding (NIMH PDSP)
5-HT6, sequence (P50406 whole entry, species assumed): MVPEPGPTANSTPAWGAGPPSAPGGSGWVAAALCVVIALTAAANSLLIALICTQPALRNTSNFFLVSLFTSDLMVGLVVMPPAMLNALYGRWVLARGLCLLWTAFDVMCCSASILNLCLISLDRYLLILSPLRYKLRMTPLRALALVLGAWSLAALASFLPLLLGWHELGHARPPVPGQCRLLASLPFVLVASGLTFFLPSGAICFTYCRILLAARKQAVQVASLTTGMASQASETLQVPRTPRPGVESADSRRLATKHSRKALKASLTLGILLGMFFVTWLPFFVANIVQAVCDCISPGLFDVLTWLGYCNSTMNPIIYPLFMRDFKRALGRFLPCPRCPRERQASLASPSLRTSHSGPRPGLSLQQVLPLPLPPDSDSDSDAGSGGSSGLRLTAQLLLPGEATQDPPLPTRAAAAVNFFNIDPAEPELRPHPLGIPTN

[7] = biological target: 5-HT7 (Homo sapiens, UniProt P34969); assay: Competitive radioligand binding (NIMH PDSP)
5-HT7, sequence (P34969 whole entry, species assumed): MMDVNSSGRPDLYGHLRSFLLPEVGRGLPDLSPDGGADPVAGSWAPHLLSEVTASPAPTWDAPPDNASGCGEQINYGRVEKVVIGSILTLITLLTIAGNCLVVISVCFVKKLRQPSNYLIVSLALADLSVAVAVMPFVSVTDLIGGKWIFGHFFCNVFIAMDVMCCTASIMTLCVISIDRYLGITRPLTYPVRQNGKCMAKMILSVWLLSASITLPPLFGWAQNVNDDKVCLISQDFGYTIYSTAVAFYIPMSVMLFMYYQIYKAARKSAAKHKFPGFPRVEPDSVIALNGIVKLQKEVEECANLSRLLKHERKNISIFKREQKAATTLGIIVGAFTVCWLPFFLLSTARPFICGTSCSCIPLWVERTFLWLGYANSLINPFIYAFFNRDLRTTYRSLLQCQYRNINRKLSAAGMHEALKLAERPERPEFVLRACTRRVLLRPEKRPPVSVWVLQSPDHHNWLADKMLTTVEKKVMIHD

[8] = read-out: HTR ED50 μmol/kg (95% CI), SC, except DOI and 25D-NBOMe IP
[9] = read-out: HTR ED50 mg/kg (95% CI), SC, except DOI and 25D-NBOMe IP
[10] = SC, except DOI and 25D-NBOMe IP

Row | SMILES | Emax [1] [%] | EC50 [2] [nM] | Emax [2] [%] | Emax [3] [%] | Max HTR response during a 30-min assessment (maximum counts ÷ baseline response) [4] | ED50 [4, 8] [µmol/kg] | ED50 [4, 9] [mg/kg] | Induction of the HTR in mice (in words) [4] | Induction of the HTR in mice (in words) ([4]; listed as 25N—NB-3-HO (21)) | Ki [5] [µM] | Ki [6] [nM] | Ki [7] [µM] | HTR ED50 μmol/kg (95% CI) [4, 10] | HTR ED50 mg/kg (95% CI) [4, 10] | 5-HT5a pKi affinity (Ki ± SEM) [5] | 5-HT6 pKi affinity (Ki ± SEM) [6] | 5-HT7 pKi affinity (Ki ± SEM) [7] | Difference in Emax (β-arrestin vs Gq) ([1]; BRET) [%] | 5-HT2A β-arrestin Emax (% 5-HT) ([1]; BRET, mean ± SEM)
1 | COc1cc([N+](=O)[O-])c(OC)cc1CCNCc1ccccc1 [25N-NB (2), Benzyl[2-(2,5-dimethoxy-4-nitrophenyl)ethyl]amine] | 115 ± 4.1 | 8.51 | 89.4 ± 2.3 | 79.5 ± 1.5 | 9.1-fold increase | 3.53 | 1.25 |  |  |  |  |  |  |  |  |  |  |  | 
2 | COc1cc([N+](=O)[O-])c(OC)cc1CCNCc1cccc(O)c1 [25N-NB-3-OH (21), 3-({[2-(2,5-dimethoxy-4-nitrophenyl)ethyl]amino}methyl)phenol] | 119 ± 5.2 |  |  | 49.8 ± 4.3 | 1.7-fold increase |  | > 30 | inactive in the HTR | do not induce the HTR | > 10 | 69.2 | > 10 |  |  |  |  |  |  | 
3 | COc1cc([N+](=O)[O-])c(OC)cc1CCNCc1ccccc1[N+](=O)[O-] [25N-NBNO2 (15), [2-(2,5-dimethoxy-4-nitrophenyl)ethyl][(2-nitrophenyl)methyl]amine] |  | 148 | 61.3 ± 4.4 |  | 1.9-fold increase |  | > 100 | lacked a HTR; also recorded: failed to induce a HTR; also recorded: do not induce the HTR |  | > 10 | > 10000 | > 10 |  |  |  |  |  |  | 
4 | COc1cc([N+](=O)[O-])c(OC)cc1CCNCc1cccc(F)c1OC [25N-NB-2-MeO-3-F (19), [2-(2,5-dimethoxy-4-nitrophenyl)ethyl][(3-fluoro-2-methoxyphenyl)methyl]amine] | 120 ± 3.3 |  |  | 71.1 ± 1.9 |  |  |  |  |  | 2.88 | > 10000 | > 10 |  |  |  |  |  |  | 
5 | COc1cc([N+](=O)[O-])c(OC)cc1CCNCc1ccccc1C(F)(F)F [25N-NBCF3 (14), [2-(2,5-dimethoxy-4-nitrophenyl)ethyl]({[2-(trifluoromethyl)phenyl]methyl}) amine] |  |  |  |  | 2.6-fold increase |  | > 30 | lacked a HTR; also recorded: failed to induce a HTR; also recorded: do not induce the HTR |  | > 10 | 407 | > 10 |  |  |  |  |  |  | 
6 | COc1cc([N+](=O)[O-])c(OC)cc1CCNCc1ccccc1OC(F)(F)F [25N-NBOCF3 (12)] |  |  |  |  | 3.9-fold increase |  |  | do not induce the HTR |  |  |  |  | 13.5 (6.81-26.8) μmol/kg | 5.90 (2.97-11.7) mg/kg | 5.80 | 6.12 | <5 |  | 
7 | COc1cc([N+](=O)[O-])c(OC)cc1CCN [2C-N (1), 2-(2,5-dimethoxy-4-nitrophenyl)ethan-1-amine, reference compound] | 83.8 ± 2.5 | 12.6 | 78.4 ± 2.5 | 87.9 ± 1.4 |  |  |  |  |  | > 10 | 251 | > 10 |  |  |  |  |  |  | 
8 | COc1cc([N+](=O)[O-])c(OC)cc1CCNCc1ccccc1OC [25N-NBOMe (4), [2-(2,5-dimethoxy-4-nitrophenyl)ethyl] [(2-methoxyphenyl)methyl]amine] | 136 ± 3.8 | 0.302 | 112 ± 2.8 | 98 | 15.6-fold increase | 0.29 | 0.11 |  |  | > 10 | 55 | > 10 |  |  |  |  |  |  | 
9 | COc1cc([N+](=O)[O-])c(OC)cc1CCNCc1cccc(C)c1O [25N-NB-2-OH-3-Me (18), 2-({[2-(2,5-dimethoxy-4-nitrophenyl)ethyl]amino}methyl)-6-methylphenol] | 131 | 2.14 | 45.8 ± 2.4 | 50.8 ± 1.6 | 1.0-fold increase |  | > 10 | failed to induce the HTR; also recorded: do not induce the HTR |  | 0.501 | 209 | 0.871 |  |  |  |  |  | 81 | 130.7 ± 4.0
10 | COc1cc([N+](=O)[O-])c(OC)cc1CCNCc1ccccc1-c1ccccc1 [25N-NBPh (17), ({[1,1′-biphenyl]-2-yl}methyl)[2-(2,5-dimethoxy-4-nitrophenyl)ethyl]amine] | 109 ± 2.8 | 646 | 96.9 ± 10 | 23.2 ± 1.5 | 2.1-fold increase |  | > 100 | lacked a HTR |  |  |  |  |  |  |  |  |  |  | 
11 | COc1cc([N+](=O)[O-])c(OC)cc1CCNCc1cccc(C)c1 [25N-NB-3-Me (22), [2-(2,5-dimethoxy-4-nitrophenyl)ethyl][(3-methylphenyl)methyl]amine] | 94.7 ± 4.2 |  |  | 41.7 ± 3.4 |  |  |  |  |  |  |  |  |  |  |  |  |  |  | 
12 | COc1cc([N+](=O)[O-])c(OC)cc1CCNCc1ccccc1I [25N-NBI (10)] |  | 87.1 | 71.5 ± 2.2 |  | 3.0-fold increase | 10.3 | 4.94 |  |  | > 10 | 380 | > 10 |  |  |  |  |  |  | 
13 | COc1cc([N+](=O)[O-])c(OC)cc1CCNCc1cccc2ccccc12 [25N-N-1-Nap (16), [2-(2,5-dimethoxy-4-nitrophenyl)ethyl][(naphthalen-1-yl)methyl]amine] | 78.2 ± 1.8 | 18.6 | 34.1 ± 4.4 | 23.7 ± 1.4 | 1.2-fold increase |  | > 30 | failed to induce the HTR |  | 1.1 | 79.4 | 0.186 |  |  |  |  |  |  | 
